According to EP4778519A1, “THERAPEUTIC OR PROPHYLACTIC AGENT FOR FRONTOTEMPORAL LOBAR DEGENERATION ACCOMPANIED BY ACCUMULATION OF TDP-43 (FTLD-TDP)” (Socium Inc., priority 2023, dated 2025):
Entries after “also recorded” stand apart in the source; their conditions may differ. Like-named read-outs stand apart in the source and are kept apart here.

Key:
[1] = tested on: Neuro2a cells transfected with the TDP-43 gene; test: Inhibition of cell death in neuron-differentiated Neuro2a cells transfected with the TDP-43 gene (Example 1); format: cell-based, Mouse; conditions: evaluated 7 days after transfection, Figures 3 and 4
Experimental: Mouse neuroblastoma (Neuro2a) cells were seeded on a dish. The Neuro2a cells were cultured in a culture medium containing DMEM+10% FBS at 37°C in the presence of 5% CO2. On the first day after seeding, differentiation into neurons was initiated. Differentiation into neurons was performed in a culture medium containing DMEM+2% FBS+20 µmol/L retinoic acid. On the fourth day after seeding, cells were transfected with synthesized TDP-43 mRNA by a lipofection method. Cells were sampled at 6 hours, 9 hours, 12 hours, 15 hours, 18 hours, and 21 hours after transfection. […] For sampling, cells were lysed in an RIPA buffer and centrifuged at 22,000xg for 30 minutes at 4°C, the supernatant was used as the soluble fraction, the precipitate was used as the insoluble fraction, and equal volumes of a 2×SDS sample buffer were added to the respective fractions and heated at 95°C for 5 minutes to prepare electrophoresis samples. The electrophoresis samples were subjected to electrophoresis using a polyacrylamide gel, TDP-43 was then transferred to a PVDF membrane. TDP-43 was detected through chemiluminescence using anti-TDP-43 antibodies as primary antibodies and HRP-conjugated anti-rabbit antibodies as secondary antibodies. […] The insoluble fractions of TDP-43 indicate the aggregation of TDP-43. […]
The proportion of dead cells was evaluated 7 days after the cells were transfected with the TDP-43 gene.

[2] = tested on: TDP-43; test: Soluble and insoluble fractions of TDP-43 in TDP-43-transfected Neuro2a cells, Western blot (Example 2); format: cell-based, Mouse; conditions: 10 µmol/L added 6 hours after transfection, cultured for 12 hours; for soluble fractions versus insoluble fractions of TDP-43: Figure 5; for proportion of insoluble fractions based on a total number of soluble fractions and insoluble fractions of TDP-43: Figure 6
Experimental: Mouse neuroblastoma (Neuro2a) cells were seeded on a dish. The Neuro2a cells were cultured in a culture medium containing DMEM+10% FBS at 37°C in the presence of 5% CO2. On the first day after seeding, differentiation into neurons was initiated. Differentiation into neurons was performed in a culture medium containing DMEM+2% FBS+20 µmol/L retinoic acid. On the fourth day after seeding, cells were transfected with synthesized TDP-43 mRNA by a lipofection method. Cells were sampled at 6 hours, 9 hours, 12 hours, 15 hours, 18 hours, and 21 hours after transfection. […] For sampling, cells were lysed in an RIPA buffer and centrifuged at 22,000xg for 30 minutes at 4°C, the supernatant was used as the soluble fraction, the precipitate was used as the insoluble fraction, and equal volumes of a 2×SDS sample buffer were added to the respective fractions and heated at 95°C for 5 minutes to prepare electrophoresis samples. The electrophoresis samples were subjected to electrophoresis using a polyacrylamide gel, TDP-43 was then transferred to a PVDF membrane. TDP-43 was detected through chemiluminescence using anti-TDP-43 antibodies as primary antibodies and HRP-conjugated anti-rabbit antibodies as secondary antibodies. […] The insoluble fractions of TDP-43 indicate the aggregation of TDP-43.
Neuro2a cells were seeded on a dish. On the first day after seeding, differentiation into neurons was initiated. On the fourth day after seeding, cells were transfected with the TDP-43 gene.

[3] = tested on: TDP-43; test: Soluble and insoluble fractions of TDP-43 in motor neurons derived from iPS cells of healthy subjects, Western blot (Example 3); format: cell-based, human; conditions: 10 µmol/L, cultured for 20 days, Figure 7
Experimental: 100 µL of an EHS-gel basement membrane matrix (commercially available from FUJIFILM Wako Pure Chemical Corporation) was added to 12.5 mL of DMEM (Dulbecco's Modified Eagle Medium, commercially available from FUJIFILM Wako Pure Chemical Corporation) and mixed, and the mixture was added to a 24-well plate at 600 µL per well. The plate was left at room temperature for 2 hours, and the solution was then removed from the wells. Next, 600 µL of DMEM was added to each well, and the plate was left at room temperature for 2 hours.
Motor neurons derived from iPS cells of healthy subjects and motor neurons derived from iPS cells of ALS patients were obtained from iXCells Biotechnologies. The motor neurons were quickly thawed in a thermostatic oven at 37°C and suspended in a motor neuron maintenance culture medium (iXCells Biotechnologies). […]
The soluble protein fractions and the insoluble protein fractions were subjected to SDS-PAGE, and the proteins were transferred to a PVDF membrane. […] Next, the PVDF membrane was washed three times with a buffer solution, 1 mL of a luminescence reagent (ImmunoStar LD, commercially available from FUJIFILM Wako Pure Chemical Corporation) was then used to induce luminescence from the labeled secondary antibodies, and the PVDF membrane was imaged.

[4] = tested on: TDP-43; test: Soluble and insoluble fractions of TDP-43 in motor neurons derived from iPS cells of ALS patients, Western blot (Example 3); format: cell-based, human; conditions: 10 µmol/L, cultured for 20 days; for bands for insoluble fractions of TDP-43: Figure 7; for average proportion of insoluble fractions of TDP-43: three experiments, Figure 8
[5] = cited from earlier work
[6] = cited from earlier work; remark: listed apart in the source
[7] = Reported human pharmacokinetics of D-cycloserine (literature); format: in vivo, humans; conditions: estimated; 15 mg orally administered twice daily

N[C@H]1CONC1=O [L-cycloserine, (4S)-4-amino-1,2-oxazolidin-3-one]
effect of inhibiting cell death [1]: exhibited an effect of inhibiting cell death in a concentration-dependent manner | soluble fractions versus insoluble fractions of TDP-43 [2]: the number of soluble fractions of TDP-43 was larger than the number of insoluble fractions of TDP-43 | proportion of insoluble fractions based on a total number of soluble fractions and insoluble fractions of TDP-43 [2]: less than half

CCCN(CCC)CCc1cccc2c1CC(=O)N2 [ropinirole]
bands for insoluble fractions of TDP-43 [3]: bands for insoluble fractions were unclear | bands for insoluble fractions of TDP-43 [4]: bands for insoluble fractions were unclear | average proportion of insoluble fractions of TDP-43 [4]: about 19.3%

N[C@@H]1CONC1=O [D-cycloserine, (4R)-4-Amino-1,2-oxazolidin-3-one]
effect of inhibiting cell death [1]: cell death was inhibited; also recorded: exhibited an effect of inhibiting cell death in a concentration-dependent manner | bands for insoluble fractions of TDP-43 [3]: bands for insoluble fractions were unclear | side effects ([5]; 150 mg administered to humans): headaches | side effects ([5]; 250 mg administered to humans to treat tuberculosis): serious side effects such as epileptiform seizure and mental confusion | bands for insoluble fractions of TDP-43 [4]: bands for insoluble fractions were unclear | average proportion of insoluble fractions of TDP-43 [4]: about 17.4% | Cmax ([6]; 15 mg orally administered to humans, read-out: maximum blood concentration (Cmax)): ~5.6 µM | half-life ([6]; in vivo): about 10 hours | trough value [7]: > 128 nmol/L | soluble fractions versus insoluble fractions of TDP-43 [2]: the number of soluble fractions of TDP-43 was larger than the number of insoluble fractions of TDP-43 | proportion of insoluble fractions based on a total number of soluble fractions and insoluble fractions of TDP-43 [2]: less than half
